Measured values taken from the supplement of paper PMC7600603.

What was measured:
DLD1 NRF2-GOF [1] = conditions: 72 h; CellTiter-Glo viability
In short: (§1)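 DLD1 colorectal cancer cells, an isogenic pair either NRF2 wild-type or carrying a CRISPR gain-of-function, were cultured in DMEM with 10% FBS and treated in 384-well plates with library compounds at 5 concentrations across a 10,000-fold range. CellTiter-Glo viability was read on a Pherastar FS reader after 72 h and normalised to vehicle wells and 100-μM positive-control wells. Four-parameter logistic dose-response fits were applied. EC50 and drug sensitivity score, a normalised area under the curve, were taken from these fits.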

DLD1 NRF2-WT [2] = conditions: 72 h; CellTiter-Glo viability
In short: as §1

DLD1 NRF2-GOF [3] = test: TC50 cytotoxicity; higher = less toxic; conditions: 72 h; CellTox Green cytotoxicity
In short: (§2)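 TC50 and drug sensitivity score, a normalised area under the curve, were derived by logistic dose-response fits of cytotoxicity. The cells were an isogenic DLD1 colorectal cancer pair, NRF2 wild-type or CRISPR-edited, kept in DMEM with 10% FBS. Compounds were tested in 384-well plates at 5 concentrations across a 10,000-fold range for 72 h. Readings with CellTox Green on a Pherastar FS reader were normalised to vehicle wells and 100-μM positive-control wells.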

DLD1 NRF2-WT [4] = test: TC50 cytotoxicity; higher = less toxic; conditions: 72 h; CellTox Green cytotoxicity
In short: as §2

DLD1 NRF2-GOF [5] = test: drug sensitivity score (DSS) cytotoxicity (DSS score); higher = more toxic; extreme values may be limits of the assay; conditions: 72 h; CellTox Green cytotoxicity
In short: as §2

DLD1 NRF2-WT [6] = test: as above; conditions: 72 h; CellTox Green cytotoxicity
In short: as §2

DLD1 NRF2-GOF [7] = test: drug sensitivity score (DSS) viability (DSS score); higher = more sensitive; extreme values may be limits of the assay; conditions: 72 h; CellTiter-Glo viability
In short: as §1

DLD1 NRF2-WT [8] = test: as above; conditions: 72 h; CellTiter-Glo viability
In short: as §1

EC50 viability (DLD1 NRF2-GOF [1])	EC50 viability (DLD1 NRF2-WT [2])	SMILES	TC50 cytotoxicity (DLD1 NRF2-GOF [3])	TC50 cytotoxicity (DLD1 NRF2-WT [4])	drug sensitivity score (DLD1 NRF2-GOF [5])	drug sensitivity score (DLD1 NRF2-WT [6])	drug sensitivity score (DLD1 NRF2-GOF [7])	drug sensitivity score (DLD1 NRF2-WT [8])
258 nM	203 nM	C=CC(=O)N1CCC(Oc2cc3c(Nc4ccc(Cl)c(Cl)c4F)ncnc3cc2OC)CC1 [Poziotinib]	> 1000 nM	> 1000 nM	0	0	2.7	3.6
210 nM	361 nM	CC(=O)c1cc2c(o1)C(=O)c1ccccc1C2=O [Napabucasin]	465 nM	617 nM	19.6	16.1	23.9	21
> 1000 nM	> 1000 nM	C[C@@H]1CN(C(=O)c2ccc(NC(=O)c3cc(O[C@H](C)c4c(Cl)ccc(F)c4Cl)c(N)nn3)cc2)C[C@H](C)N1 [Ensartinib]	> 1000 nM	> 1000 nM	0.2	0.3	0.1	0
1140 nM	1470 nM	CC(C)Nc1cc(-c2c[nH]c(C(=O)N[C@H](CO)c3cccc(Cl)c3)c2)c(Cl)cn1 [Ulixertinib]	> 10000 nM	> 10000 nM	0	0	6.3	6.1
> 50000 nM	> 50000 nM	CCN(CC)C(=S)SSC(=S)N(CC)CC [Disulfiram(+CuCl2)]	> 50000 nM	> 50000 nM	0	0	0.1	0.1
1380 nM	4010 nM	Nc1ncn([C@@H]2O[C@H](CO)[C@@H](O)[C@H]2O)c(=O)n1 [Azacitidine]	> 10000 nM	> 10000 nM	0	0	3.3	1
54.6 nM	51.9 nM	COC(=O)C[C@](O)(CCCC(C)(C)O)C(=O)O[C@@H]1C(OC)=C[C@]23CCCN2CCc2cc4c(cc2[C@H]13)OCO4 [Omacetaxine]	329 nM	346 nM	8.4	10.1	26.9	27.6
305 nM	102 nM	CCOc1cc2ncc(C#N)c(Nc3ccc(OCc4ccccn4)c(Cl)c3)c2cc1NC(=O)/C=C/CN(C)C [Neratinib]	> 1000 nM	> 1000 nM	0	0	2.2	5.7
92.1 nM	357 nM	CO[C@@H](C(=O)N1Cc2[nH]nc(NC(=O)c3ccc(N4CCN(C)CC4)cc3)c2C1)c1ccccc1 [Danusertib]	> 10000 nM	> 10000 nM	0	2.4	16.6	10.4
12.8 nM	12.1 nM	CCNC(=O)c1noc(-c2cc(C(C)C)c(O)cc2O)c1-c1ccc(CN2CCOCC2)cc1 [Luminespib]	> 1000 nM	> 1000 nM	0	0	21.4	22
1260 nM	1100 nM	O=C(/C=C/c1cccc(S(=O)(=O)Nc2ccccc2)c1)NO [Belinostat]	> 10000 nM	1530 nM	0	2.6	7.1	9.9
718 nM	496 nM	CNc1ncc2cc(-c3cc(NC(=O)NCCC(C)(C)C)c(F)cc3C)c(C)nc2n1	> 10000 nM	> 10000 nM	0	0	6.4	9.9
> 10000 nM	> 10000 nM	CNC(=O)c1ccc(N2C(=S)N(c3ccc(C#N)c(C(F)(F)F)c3)C(=O)C2(C)C)cc1F [Enzalutamide]	> 10000 nM	> 10000 nM	0	0	0.1	0.5
1310 nM	1150 nM	Nc1ncnc2c1nc(Cl)n2[C@@H]1O[C@H](CO)[C@@H](O)[C@H]1O [8-chloro-adenosine]	> 50000 nM	> 50000 nM	0.2	0	15.2	16.6
176 nM	1 nM	O=c1[nH]cc(F)c(=O)[nH]1 [Fluorouracil]	> 10000 nM	> 10000 nM	0	0	7.1	10.3
258 nM	255 nM	O=c1[nH]c(=O)n([C@H]2C[C@H](O)[C@@H](CO)O2)cc1F [Floxuridine]	> 10000 nM	> 10000 nM	0	0	11.8	12.2
96.9 nM	45.2 nM	CC(=O)[C@]1(O)Cc2c(O)c3c(c(O)c2[C@@H](O[C@H]2C[C@H](N)[C@H](O)[C@H](C)O2)C1)C(=O)c1ccccc1C3=O [Idarubicin]	219 nM	150 nM	2.4	4.8	10	14.2

EC50 viability (DLD1 NRF2-GOF [1])	EC50 viability (DLD1 NRF2-WT [2])	SMILES	TC50 cytotoxicity (DLD1 NRF2-GOF [3])	TC50 cytotoxicity (DLD1 NRF2-WT [4])	drug sensitivity score (DLD1 NRF2-GOF [5])	drug sensitivity score (DLD1 NRF2-WT [6])	drug sensitivity score (DLD1 NRF2-GOF [7])	drug sensitivity score (DLD1 NRF2-WT [8])
> 1000 nM	> 1000 nM	CCN1CCN(c2ccc(Nc3cc(N(C)C(=O)Nc4c(Cl)c(OC)cc(OC)c4Cl)ncn3)cc2)CC1 [NVP-BGJ398]	> 1000 nM	> 1000 nM	0	0	0	0
50.4 nM	67 nM	COC[C@H](NC(=O)c1cnc(C)s1)C(=O)N[C@@H](COC)C(=O)N[C@@H](Cc1ccccc1)C(=O)[C@@]1(C)CO1 [Oprozomib]	116 nM	56.9 nM	15.9	19.7	20.2	18.8
> 5000 nM	401 nM	Cc1ncc(Cl)cc1NCc1ccc(C(=O)N[C@@H](CC2CCCC2)C(=O)NC2CC2)s1	> 5000 nM	> 5000 nM	0	0	0	4
25.3 nM	7.1 nM	COc1ncc(-c2ccc3nccc(-c4ccnnc4)c3c2)cc1NS(=O)(=O)c1ccc(F)cc1F [Omipalisib]	> 1000 nM	> 1000 nM	0	0	12.6	18.7
103 nM	75.1 nM	COc1ccc(-c2ccc3c(N4CCOC[C@@H]4C)nc(N4CCOC[C@@H]4C)nc3n2)cc1CO [AZD8055]	> 10000 nM	> 10000 nM	0	0	17.4	19.1
> 10000 nM	> 10000 nM	COc1ccc(COc2cc3oc(=O)c4cc(C(C)O)ccc4c3cc2OC)cc1 (stereo not given) [Palomid-529]	> 10000 nM	> 10000 nM	0	0	0.6	0
26.6 nM	19.6 nM	CN(C)C1CCN(C(=O)c2ccc(NC(=O)Nc3ccc(-c4nc(N5CCOCC5)nc(N5CCOCC5)n4)cc3)cc2)CC1 [Gedatolisib]	> 1000 nM	> 1000 nM	0	0	12.6	13.5
499 nM	880 nM	CO[C@@H]1[C@H](N(C)C(=O)c2ccccc2)C[C@H]2O[C@]1(C)n1c3ccccc3c3c4c(c5c6ccccc6n2c5c31)C(=O)NC4 [Midostaurin]	801 nM	686 nM	12.9	12.4	12.4	9.8
29.7 nM	35.5 nM	CN(Cc1cnc2nc(N)nc(N)c2n1)c1ccc(C(=O)N[C@@H](CCC(=O)O)C(=O)O)cc1 [Methotrexate]	> 5000 nM	> 5000 nM	0	0	23.8	23.4
1530 nM	1510 nM	CCc1cncnc1N1CCN(Cc2nc3cc(C(F)(F)F)ccc3[nH]2)CC1	> 10000 nM	> 10000 nM	0	0	3	4.6
1700 nM	> 10000 nM	COC12C(COC(N)=O)C3=C(C(=O)C(C)=C(N)C3=O)N1CC1NC12 (stereo in doubt) [Mitomycin C]	> 10000 nM	> 10000 nM	0	0	4	0
8.3 nM	14.7 nM	Cc1nc(=O)c2cc(CN(C)c3ccc(C(=O)N[C@@H](CCC(=O)O)C(=O)O)s3)ccc2[nH]1 [Raltitrexed]	> 1000 nM	> 1000 nM	0	0	18	16
266 nM	156 nM	CN1CC[C@H](c2c(O)cc(O)c3c(=O)cc(-c4ccccc4Cl)oc23)[C@H](O)C1 [Alvocidib]	> 10000 nM	> 10000 nM	0	0.8	16.2	20.1
4090 nM	5140 nM	O=C(NCc1ccncc1)C12CC3CC(C1)CC(c1ccc(Cl)cc1)(C3)C2	> 50000 nM	> 50000 nM	0.3	0	9	8.7
> 10000 nM	> 10000 nM	Nc1nc(F)nc2c1ncn2[C@@H]1O[C@H](CO)[C@@H](O)[C@@H]1O [Fludarabine]	> 10000 nM	> 10000 nM	0	0	0	0.1
270 nM	543 nM	COCCOc1cnc2ccn([C@H](C)c3nnc4c(F)cc(-c5cnn(C)c5)cn34)c(=O)c2c1 [AMG-337]	> 10000 nM	> 10000 nM	0	0	6.6	4.2

SMILES	EC50 viability (DLD1 NRF2-GOF [1])	EC50 viability (DLD1 NRF2-WT [2])	TC50 cytotoxicity (DLD1 NRF2-GOF [3])	TC50 cytotoxicity (DLD1 NRF2-WT [4])	drug sensitivity score (DLD1 NRF2-GOF [5])	drug sensitivity score (DLD1 NRF2-WT [6])	drug sensitivity score (DLD1 NRF2-GOF [7])	drug sensitivity score (DLD1 NRF2-WT [8])
COc1cc(C)[nH]c(=O)c1CNC(=O)c1c(C)n([C@H](C)C2CCOCC2)c2ccccc12 [CPI-360]	198 nM	> 10000 nM	> 10000 nM	> 10000 nM	0	0	7.4	0
O=C(Nc1ccncc1)C(=O)c1cn(Cc2ccc(Cl)cc2)c2ccccc12 [Indibulin]	381 nM	283 nM	> 10000 nM	> 10000 nM	0	0.4	7.8	8.6
